Experiments:
[1] = Volume of distribution at steady state in Sprague-Dawley rat at 2 mg/kg, iv; type: ADME, organism-based; parameters: dose 2 mg/kg, route intravenous; details: in vivo, read-out: Vdss
[2] = Oral bioavailability in Sprague-Dawley rat at 5 mg/kg; type: ADME, organism-based; details: in vivo
[3] = Apparent intrinsic clearance in human liver microsomes assessed per mg of protein; type: ADME, Microsome
Rattus norvegicus [4] = test: Antidiabetic activity in Sprague-Dawley rat assessed as increase of urinary glucose excretion assessed per 200 gram of body weight at 30 mg/kg, po after 24 hrs; type: functional, Urine
[5] = target: T1, Organic anion transporter 3 (Homo sapiens, UniProt Q8TCC7); test: Inhibition of human OAT3
T1 sequence (Q8TCC7 whole entry): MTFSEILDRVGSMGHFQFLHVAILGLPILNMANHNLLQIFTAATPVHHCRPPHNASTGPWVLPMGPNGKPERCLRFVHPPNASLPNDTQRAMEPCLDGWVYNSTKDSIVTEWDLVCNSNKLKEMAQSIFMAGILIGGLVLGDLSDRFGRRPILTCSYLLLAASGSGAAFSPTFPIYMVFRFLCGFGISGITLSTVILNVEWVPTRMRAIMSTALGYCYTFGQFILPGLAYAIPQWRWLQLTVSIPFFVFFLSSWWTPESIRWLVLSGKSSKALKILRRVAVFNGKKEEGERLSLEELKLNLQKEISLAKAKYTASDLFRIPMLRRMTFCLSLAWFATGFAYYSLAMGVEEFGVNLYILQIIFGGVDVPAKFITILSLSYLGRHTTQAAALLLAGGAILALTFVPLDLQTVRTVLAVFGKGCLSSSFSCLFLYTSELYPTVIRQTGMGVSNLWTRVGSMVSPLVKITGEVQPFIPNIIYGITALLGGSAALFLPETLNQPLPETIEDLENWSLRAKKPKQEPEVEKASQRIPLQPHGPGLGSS

[6] = Tmax in Sprague-Dawley rat at 5 mg/kg, po; type: ADME, organism-based; parameters: dose 5 mg/kg, route oral; details: in vivo
Plasma [7] = test: Fraction unbound in rat plasma at 1000 ng/mL by equilibrium dialysis method; type: ADME, cell-free
Rattus norvegicus [8] = test: Inhibition of SGLT2 in po dosed Sprague-Dawley rat after 24 hrs; type: functional, organism-based
[9] = Cmax in Sprague-Dawley rat at 5 mg/kg, po; type: ADME, organism-based; parameters: dose 5 mg/kg, route oral; details: in vivo
[10] = target: T2, Solute carrier family 22 member 6 (Homo sapiens, UniProt Q4U2R8); test: Inhibition of human OAT1
T2 sequence (Q4U2R8 whole entry): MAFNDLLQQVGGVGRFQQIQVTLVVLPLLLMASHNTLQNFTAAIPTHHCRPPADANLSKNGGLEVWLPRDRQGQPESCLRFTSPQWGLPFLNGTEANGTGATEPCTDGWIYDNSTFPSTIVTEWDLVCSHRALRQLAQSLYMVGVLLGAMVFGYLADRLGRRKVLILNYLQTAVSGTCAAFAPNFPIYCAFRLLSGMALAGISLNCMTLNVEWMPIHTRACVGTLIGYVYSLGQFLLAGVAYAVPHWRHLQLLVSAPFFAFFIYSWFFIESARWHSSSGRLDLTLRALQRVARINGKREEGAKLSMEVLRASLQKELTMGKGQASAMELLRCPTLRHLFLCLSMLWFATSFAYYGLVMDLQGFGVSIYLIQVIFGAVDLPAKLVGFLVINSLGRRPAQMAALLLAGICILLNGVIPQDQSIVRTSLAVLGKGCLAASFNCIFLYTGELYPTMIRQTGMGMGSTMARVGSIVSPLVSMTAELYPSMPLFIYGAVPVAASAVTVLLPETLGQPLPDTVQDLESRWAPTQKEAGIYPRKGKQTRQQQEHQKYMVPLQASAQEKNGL

Plasma [11] = test: Fraction unbound in human plasma at 1000 ng/mL by equilibrium dialysis method; type: ADME, cell-free
[12] = target: T3, Solute carrier family 22 member 2 (Homo sapiens, UniProt O15244); test: Inhibition of human OCT2
T3 sequence (O15244 whole entry): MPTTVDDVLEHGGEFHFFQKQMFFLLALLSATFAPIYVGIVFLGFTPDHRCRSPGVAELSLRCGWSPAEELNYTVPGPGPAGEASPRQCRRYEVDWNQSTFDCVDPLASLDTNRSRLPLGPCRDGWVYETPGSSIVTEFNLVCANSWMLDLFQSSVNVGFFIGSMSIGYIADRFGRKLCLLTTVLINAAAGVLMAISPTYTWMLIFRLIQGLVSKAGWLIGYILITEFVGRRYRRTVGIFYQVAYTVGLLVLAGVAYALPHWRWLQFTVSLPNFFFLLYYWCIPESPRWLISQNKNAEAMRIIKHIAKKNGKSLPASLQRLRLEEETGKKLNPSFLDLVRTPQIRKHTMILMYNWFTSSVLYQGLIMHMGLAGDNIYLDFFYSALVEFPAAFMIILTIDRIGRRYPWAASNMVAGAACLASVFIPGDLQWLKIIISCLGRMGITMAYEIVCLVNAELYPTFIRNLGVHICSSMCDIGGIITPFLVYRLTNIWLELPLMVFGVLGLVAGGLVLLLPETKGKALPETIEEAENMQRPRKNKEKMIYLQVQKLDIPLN

Rattus norvegicus [13] = test: Average free plasma concentration in Sprague-Dawley rat at 30 mg/kg, po after 24 hrs; type: ADME, organism-based; parameters: dose 30 mg/kg, route oral; details: in vivo

For `CCOc1ccc(Cc2cc([C@]34OC[C@](CO)(O3)[C@@H](O)[C@H](O)[C@H]4O)ccc2Cl)cc1` [ERTUGLIFLOZIN], the Vd [1] was 1.13 L/kg, the bioavailability [2] was 69% and the microsomal CLint [3] was 12 µL/min/mg. For the same molecule, the Activity (Rattus norvegicus [4]) was 2554 mg, the “inhibition (INH)” value [5] was “Not Active” and the Tmax [6] was 1 h. The Fu (Plasma [7]) was 4%, the IC50 (Rattus norvegicus [8]) was 1.8 nM and the Cmax [9] was 1940 ng/mL. For the same molecule, the “inhibition (INH)” value [10] was “Not Active”, the Fu (Plasma [11]) was 6.4% and the “inhibition (INH)” value [12] was “Not Active”. For the same molecule, the Cp (Rattus norvegicus [13]) was 408 nM.
